Measurements taken from patent publication US10766865B2, “PKM2 modulators and methods for their use” (TOLERO PHARMACEUTICALS, INC., priority 2012, dated 2020).

Key:
[1] = tested on: lung carcinoma cell lines; experiment: Viability against a subset of lung carcinoma cell lines; type: cell-based; conditions: certain of 6 cell lines, media lacking serine, FIG. 4C; read-out: IC50, inhibition of cell proliferation
Experimental: (§1) Viability effect of Example 1 against a subset of lung carcinoma cell lines was determined as follows. Cells were seeded at 1500 cells per well in 384-well plates in BME media, and compound was added in 0.1% DMSO 18 hours later. Viability was determined by ATPlite assay after 72 hours. (See FIG. 4C).

Hs766T = experiment: Cell line sensitivity (viability, ATPlite); type: cell-based; conditions: Pancreatic, BME media, 72 hours, read-out: Sensitivity to Example 1 (IC50)
Experimental: as §1
(§2) Example 1 was tested against an expanded panel of cell lines according to the above procedure.

Ls174T = experiment: Cell line sensitivity (viability, ATPlite); type: cell-based; conditions: Homo sapiens, Colon, BME media, 72 hours, read-out: Sensitivity to Example 1 (IC50)
Experimental: as §1, §2

ACHN = experiment: Cell line sensitivity (viability, ATPlite); type: cell-based; conditions: Homo sapiens, Kidney, BME media, 72 hours, read-out: Sensitivity to Example 1 (IC50)
Experimental: as §1, §2

Panc-1 = experiment: Cell line sensitivity (viability, ATPlite); type: cell-based; conditions: Homo sapiens; Panc-1, Pancreatic; BME media, 72 hours; read-out: Sensitivity to Example 1 (IC50)
Experimental: as §1, §2

NCI-H522 = experiment: Cell line sensitivity (viability, ATPlite); type: cell-based; conditions: Homo sapiens; NCI-H522, Lung; BME media, 72 hours; read-out: Sensitivity to Example 1 (IC50)
Experimental: as §1, §2

PSN-1 = experiment: Cell line sensitivity (viability, ATPlite); type: cell-based; conditions: Homo sapiens, PSN1; PSN-1, Pancreatic; BME media, 72 hours; read-out: Sensitivity to Example 1 (IC50)
Experimental: as §1, §2

HCT15 = experiment: Cell line sensitivity (viability, ATPlite); type: cell-based; conditions: Homo sapiens, HCT-15; HCT15, Colon; BME media, 72 hours; read-out: Sensitivity to Example 1 (IC50)
Experimental: as §1, §2

A172 = experiment: Cell line sensitivity (viability, ATPlite); type: cell-based; conditions: Homo sapiens, A 172; A172, Brain; BME media, 72 hours; read-out: Sensitivity to Example 1 (IC50)
Experimental: as §1, §2

UMUC-3 = experiment: Cell line sensitivity (viability, ATPlite); type: cell-based; conditions: Homo sapiens, UMUC3; UMUC-3, Bladder; BME media, 72 hours; read-out: Sensitivity to Example 1 (IC50)
Experimental: as §1, §2

Skov3 = experiment: Cell line sensitivity (viability, ATPlite); type: cell-based; conditions: Homo sapiens, SK-OV-3; Skov3, Ovarian; BME media, 72 hours; read-out: Sensitivity to Example 1 (IC50)
Experimental: as §1, §2

Capan1 = experiment: Cell line sensitivity (viability, ATPlite); type: cell-based; conditions: Homo sapiens, CAPAN-1; Capan1, Pancreatic; BME media, 72 hours; read-out: Sensitivity to Example 1 (IC50)
Experimental: as §1, §2

FaDu = experiment: Cell line sensitivity (viability, ATPlite); type: cell-based; conditions: Homo sapiens, Head/Neck, BME media, 72 hours, read-out: Sensitivity to Example 1 (IC50)
Experimental: as §1, §2

H1299 = experiment: Cell line sensitivity (viability, ATPlite); type: cell-based; conditions: Homo sapiens, NCI-H1299; H1299, Lung; BME media, 72 hours; read-out: Sensitivity to Example 1 (IC50)
Experimental: as §1, §2

Gist882 = experiment: Cell line sensitivity (viability, ATPlite); type: cell-based; conditions: Homo sapiens; Gist882, GIST; BME media, 72 hours; read-out: Sensitivity to Example 1 (IC50)
Experimental: as §1, §2

786-O = experiment: Cell line sensitivity (viability, ATPlite); type: cell-based; conditions: Homo sapiens, 786-0, Kidney, BME media, 72 hours, read-out: Sensitivity to Example 1 (IC50)
Experimental: as §1, §2

PC3 = experiment: Cell line sensitivity (viability, ATPlite); type: cell-based; conditions: Homo sapiens, PC-3; PC3, Prostate; BME media, 72 hours; read-out: Sensitivity to Example 1 (IC50)
Experimental: as §1, §2

HT29 = experiment: Cell line sensitivity (viability, ATPlite); type: cell-based; conditions: Homo sapiens, HT-29; HT29, Colon; BME media, 72 hours; read-out: Sensitivity to Example 1 (IC50)
Experimental: as §1, §2

A498 = experiment: Cell line sensitivity (viability, ATPlite); type: cell-based; conditions: Homo sapiens; A498, Kidney; BME media, 72 hours; read-out: Sensitivity to Example 1 (IC50)
Experimental: as §1, §2

Capan2 = experiment: Cell line sensitivity (viability, ATPlite); type: cell-based; conditions: Homo sapiens, Capan-2; Capan2, Pancreatic; BME media, 72 hours; read-out: Sensitivity to Example 1 (IC50)
Experimental: as §1, §2

A549 cells = experiment: Cell Proliferation Assay, A549; type: cell-based; conditions: Homo sapiens; A549, BME media lacking nonessential amino acids, 72 hours, ATPlite; read-out: Percent viability (EC50), Average
Experimental: (§3) Cells were seeded at 5000 cells per well (in 96-well plate) in BME media lacking nonessential amino acids+5% dialyzed serum. After 18 hours, DMSO or compound in 0.1% final concentration DMSO was added.
(§4) Percent viability (EC50) of A549 and PC3 cells was tested against certain exemplary compounds according to the above general procedures.

PC3 cells = experiment: Cell Proliferation Assay, PC3; type: cell-based; conditions: Homo sapiens, PC-3; PC3, BME media lacking nonessential amino acids, 72 hours, ATPlite; read-out: Percent viability (EC50), Average
Experimental: as §3, §4

PKM2 = PKM2 (Homo sapiens, UniProt P14618); experiment: Cell-Based Pyruvate Kinase Activity Assay, A549; set-up: host or cells: A549 or NCI-H1299 lung cancer cells; conditions: A549, 30 minutes with compound, n = 4; read-out: Cellular PKM2 activation EC50
Experimental: Cell-Based Pyruvate Kinase Activity Assay
A549 or NCI-H1299 lung cancer cells were plated at 20,000 cells per well (96-well plate) in MEM media plus 10% FBS, with no additional glutamine or pyruvate. Following overnight incubation, cells were washed with PBS followed by 4 hour incubation in MEM media. Compounds were added to the cells in 1% final concentration DMSO. After 30 minutes, cells were lysed, and pyruvate kinase activity in lysates was determined by Pyruvate Kinase Activity Assay (BioVision, Milpitas, Calif.). Maximum velocity values were calculated from the kinetic data, and AC50 values were determined using Prism GraphPad Software (La Jolla, Calif.). Compound washout experiments were as described above, except after a 30 minute incubation with Example 244 (469 nM), the cells were washed with PBS followed by the addition of MEM media for the indicated time period, lysed and pyruvate kinase activity determined. Results are tabulated in Table 3 and presented graphically in FIGS. 6A and 6B.

Sequence of PKM2 (P14618 2-531 limits assumed): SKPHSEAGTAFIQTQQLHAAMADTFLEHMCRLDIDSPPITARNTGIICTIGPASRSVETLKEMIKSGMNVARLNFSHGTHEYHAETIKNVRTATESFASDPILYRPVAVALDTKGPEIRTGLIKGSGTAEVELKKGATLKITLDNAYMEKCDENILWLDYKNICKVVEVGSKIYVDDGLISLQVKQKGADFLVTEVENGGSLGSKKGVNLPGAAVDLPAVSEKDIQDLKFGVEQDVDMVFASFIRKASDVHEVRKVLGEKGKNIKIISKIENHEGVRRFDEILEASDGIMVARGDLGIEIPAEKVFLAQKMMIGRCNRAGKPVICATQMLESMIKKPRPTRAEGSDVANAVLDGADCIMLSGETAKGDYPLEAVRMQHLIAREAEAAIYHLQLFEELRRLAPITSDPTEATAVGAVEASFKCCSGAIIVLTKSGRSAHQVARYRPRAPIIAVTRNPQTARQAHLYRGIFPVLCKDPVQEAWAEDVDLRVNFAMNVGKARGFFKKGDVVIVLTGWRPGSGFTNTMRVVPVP

IC50 [1]: ≥ 100 nM
IC50 (ACHN): 100 nM
IC50 (Panc-1): 14 nM
IC50 (NCI-H522): > 30 µM
IC50 (HCT15): > 30 µM
IC50 (H1299): 600 nM
IC50 (786-O): > 30 µM
IC50 (PC3): 100 nM
IC50 (HT29): 100 nM
EC50 (A549 cells): 70 nM
EC50 (PC3 cells): 156 nM
EC50 (PKM2): 260 ± 120 nM
Compound: O=C(c1cc(C(F)(F)F)n[nH]1)N(Cc1ccc(O)cc1F)CC1CCC1 [Example 1, N-(cyclobutylmethyl)-N-(2-fluoro-4-hydroxybenzyl)-3-(trifluoromethyl)-1H-pyrazole-5-carboxamide]
IC50 (Hs766T): 300 nM
IC50 (Ls174T): > 30 µM
IC50 (PSN-1): > 30 µM
IC50 (A172): 2300 nM
IC50 (UMUC-3): > 30 µM
IC50 (Skov3): 8 µM
IC50 (Capan1): > 30 µM
IC50 (FaDu): > 30 µM
IC50 (Gist882): 800 nM
IC50 (A498): > 30 µM
IC50 (Capan2): > 30 µM
